Test results from patent US6989435B2, “Compounds and methods to inhibit or augment an inflammatory response” (Cambridge University Technical Services Ltd., priority 1997, dated 2006).
Marks after values point to notes of the source that are not given here. Positions of bridges follow the written chain, without caps; N, C: chain ends. Non-standard residues stand in square brackets, D forms with d. Residues, ends and D or L forms follow the SMILES beside them. ξ: configuration not given here. ξI = CCC(C)C(N)C(=O)O

How the values were obtained:
[1] = Stability against acid hydrolysis; format: physicochemical; details: pH 2.0 for 2 hrs at 37° C.
Method: (§1) For example, to prepare a peptide 3 derivative, peptide 3(3-12)[MCP-1] was modified according to Jameson et al. (Nature, 368, 744 (1994)), which yielded CRD-Cys13leu4ile11peptide 3[MCP-1] (FIG. 4). CRD-Cys13eu4ile11peptide 3[MCP-1], which had very similar properties to peptide 3(1-12)[MCP-1] […] CRD-Cys13leu4ile11peptide 3[MCP-1] was also resistant to hydrolysis in vivo and allowed therapeutically useful plasma concentrations to be achieved (>10 μM 24 hours after a single intraperitoneal dose of 1 mg of CRD-Cys13leu4ile11peptide 3[MCP-1] in 250 μl saline).

trypsin = experiment: Stability against enzymatic destruction; format: in vitro ADME; details: 5 units trypsin for 2 hrs at 37° C.
Method: as §1

[2] = Plasma concentration after a single intraperitoneal dose; format: in vivo; details: ip, 24 hours after a single intraperitoneal dose of 1 mg in 250 μl saline
Method: as §1

[3] = system: chemokine receptors on THP-1 cells; experiment: Binding to THP-1 cells; parameters: species or system human; details: Table 7
Method: In general, specific binding is calculated as the amount of labeled agent bound in the absence of cold competitor minus the amount of labeled agent bound in the presence of cold competitor. The amount of specific binding in the presence of varied amounts of cold competitor can be used to determine the association constant for the agent, as well as the number of binding sites on the cell for the agent, using, for example, Scatchard Analysis. The agent may be labeled by radiolabeling (e.g., iodination) or with a suitable biochemical tag (e.g., biotin) or by addition of a photoactivatable crosslinking group. […]
For example, monocytes are suspended in RPMI 1640 medium without bicarbonate containing 0.2% bovine serum albumin and 0.1% azide. […] Filters are washed with 4 ml of cold wash buffer, and the radioactivity bound to the filters is counted in a γ-counter.
For competition studies, the IC50 is calculated with a curve fitting program (GraFit, Erithacus Software, London), using a four-parameter logistic, cpmbound=cpmmax/(1+([L]/IC50)^S)+cpmns, where cpmmax represents the binding without competitor, [L] is the competitor concentration, cpmns is the non-specific binding, and s is the slope factor. […]

Row | Compound | degradation by acid hydrolysis [1] [%] | stability against enzymatic destruction (trypsin) | level at time molar at 24 h [2] [µM] | AVERAGE ED50 (peptide 2 family: estimated ka for binding to THP-1 cells) [3]
1 | CCC(C)C1NC(=O)[C@@H](CCC(N)=O)NC(=O)[C@H](N)CSSC[C@H](C(=O)O)NC(=O)[C@@H](CC(C)C)NC(=O)[C@@H](CC(=O)O)NC(=O)[C@H]2CCCN2C(=O)[C@@H](CCCCN)NC(=O)[C@@H](CCC(N)=O)NC(=O)[C@@H](CCCCN)NC(=O)[C@@H](Cc2c[nH]c3ccccc23)NC1=O (stereo partly drawn) [CRD-Cys13Leu4ile11peptide 3] (H-[dC][dQ][ξI][dW][dK][dQ][dK][dP][dD][dL][dC]-OH; disulfide 1-11; N-terminus and C-terminus assumed) | < 10 | stable | > 10 | 
2 | ELRVIESGPHCANTEI [Pep2[IL8]] |  |  |  | 1-10^c μM
3 | HLKILNTPNCALQIV [Pep2[SDF1]] |  |  |  | 1-10^c μM
